pIC50: −log10 of the molar value.
Tests used:
KI-JK ALCL tumors = assay: KI-JK ALCL xenograft efficacy (Example 17); assay type: in vivo, mice; settings: 30 or 100 μg/kg PO daily for 21 days
Protocol: A xenograft study was conducted in female NOD SCID mice bearing KI-JK ALCL tumors.
Data are expressed as MTV±SEM.

KMM-1 = assay: Anti-proliferative activity, 96 hours; settings: KMM-1, 96 h
SU-DHL-2 = assay: Anti-proliferative activity, 96 hours; settings: Homo sapiens, SU-DHL-2, 96 h
IKZF1 = target: T1, IKZF1 (Rattus norvegicus, UniProt A0A0G2JVD9); assay: Ex vivo IKZF1 degradation in PBMC, rat; assay type: cell-based; settings: rat cells
T1 construct: from tissue; host or cells: peripheral blood cells (PBMC) of rats, ex vivo
T1 sequence (A0A0G2JVD9 1-562): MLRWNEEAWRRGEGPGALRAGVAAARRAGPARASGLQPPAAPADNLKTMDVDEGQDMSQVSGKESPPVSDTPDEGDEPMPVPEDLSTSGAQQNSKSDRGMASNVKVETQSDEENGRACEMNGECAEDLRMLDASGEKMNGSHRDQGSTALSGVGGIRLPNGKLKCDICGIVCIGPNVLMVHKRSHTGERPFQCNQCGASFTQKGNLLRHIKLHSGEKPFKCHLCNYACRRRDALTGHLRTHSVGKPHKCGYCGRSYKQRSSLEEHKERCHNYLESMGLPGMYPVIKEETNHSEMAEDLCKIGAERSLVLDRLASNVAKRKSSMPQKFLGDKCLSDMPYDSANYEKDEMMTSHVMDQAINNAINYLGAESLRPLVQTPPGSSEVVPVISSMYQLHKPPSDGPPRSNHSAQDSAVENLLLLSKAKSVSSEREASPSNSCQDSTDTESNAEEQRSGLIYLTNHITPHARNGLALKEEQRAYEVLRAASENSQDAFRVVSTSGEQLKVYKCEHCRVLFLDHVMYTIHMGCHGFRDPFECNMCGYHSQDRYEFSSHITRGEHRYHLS
T1 sequence (Q56AP7 whole entry partner): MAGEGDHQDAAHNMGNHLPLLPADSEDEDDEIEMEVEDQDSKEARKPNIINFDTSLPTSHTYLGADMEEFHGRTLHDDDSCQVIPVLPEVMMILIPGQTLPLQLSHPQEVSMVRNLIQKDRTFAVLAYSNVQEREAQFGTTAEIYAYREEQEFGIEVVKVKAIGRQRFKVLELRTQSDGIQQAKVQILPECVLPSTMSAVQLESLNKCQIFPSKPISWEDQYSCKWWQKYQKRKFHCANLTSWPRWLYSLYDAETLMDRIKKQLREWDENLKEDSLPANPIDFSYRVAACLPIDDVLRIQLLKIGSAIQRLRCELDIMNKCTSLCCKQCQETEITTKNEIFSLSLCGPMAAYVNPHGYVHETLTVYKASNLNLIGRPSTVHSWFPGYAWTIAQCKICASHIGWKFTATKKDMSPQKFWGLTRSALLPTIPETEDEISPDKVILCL
Protocol: IKZF1/3 are not degraded in mouse cells treated with thalidomide or its IMiD® analogs because of a single amino acid difference in mouse cereblon compared to human cereblon that causes steric hindrance and prevents recruitment of IKZF1/3. Ex vivo studies were performed in peripheral blood cells (PBMC) of mice, rats, dogs, and monkeys to identify relevant species for IND enabling-toxicity studies based on the degree of IKZF1 degradation by Compound 1. IKZF1 was not degraded in mouse or rat cells by Compound 1, thus, while rat could not be considered a pharmacologically relevant species for human risk assessment, it was chosen as the rodent species for toxicological studies because it is widely used in toxicity testing and a substantial historical toxicology database is available. […] Therefore, cynomolgus monkey was chosen for non-rodent toxicological studies.

[1] = test system: NCI-H929 multiple myeloma tumors; assay: NCI-H929 multiple myeloma xenograft, NOD SCID mice (Example 31); assay type: in vivo
Protocol: Compound 1 was administered QD (every day) orally (PO). […]
For the NCI-H929 cells, the xenograft study was conducted in female NOD SCID mice bearing NCI-H929 multiple myeloma tumors.
After the dosing period, tumor growth was monitored for 45 days. […] After the initial 21 days of dosing, all Compound 1 groups were monitored for tumor growth. The 10 μg/kg group was removed from study on 39. The 30 μg/kg group tumors began to regrow, and PO daily dosing resumed starting on day 40 for an additional 23 days. Statistical analysis was performed using two-way analysis of variance (ANOVA). Data are expressed as MTV±SEM.

IKZF1 and IKZF3 = IKZF1 and IKZF3 in blood cells of a monkey by flow cytometry; assay type: in vivo, cynomolgus monkey; settings: 30 μg/kg oral gavage, 4-hour and 24-hour timepoint
Protocol: One fasted male cynomolgus monkey was administered Compound 1 formulated in 1% carboxymethylcellulose sodium+20% PEG400 in citrate buffer at 30 μg/kg by oral gavage. At indicated timepoints, blood was collected from a peripheral vessel from a restrained, non sedated monkey. 50 uL of whole blood was added to a flow tube with 1 ml PBS, centrifuged for 5 minutes at 400×g and supernatant discarded. Blood was lysed in 1 mL of lysis buffer for 10-15 minutes at room temperature, centrifuged for 5 minutes at 400× and supernatant discarded. PBS (1 mL) was added to each tube, centrifuged for 5 minutes at 400×g and supernatant discarded. PBS (1 mL) was added together with 1 ul of Zombie NIR dye to the white blood cells and incubated for 20 minutes at room temperature. The cells were centrifuged for 5 minutes at 400×g and supernatant discarded. Fixation buffer (1 mL) was added and incubated for 20 minutes at room temperature. Cells were washed with permeabilization buffer (1 mL) and centrifuged for 5 minutes at 400×g and supernatant discarded. […] Cells were washed twice with PBS (1 mL), resuspended in PBS and analyzed analyzed on a BD LSR Fortessa Flow Cytometer. FIG. 24 is a graph of the percent mean fluorescence intensity of IKZF1 and IZKF3 at 4 h and 24 hr post dose compared to the pre-dose sample. […]

DL-40 ALCL tumors = assay: DL-40 ALCL xenograft efficacy (Example 19); assay type: in vivo, mice
Protocol: A xenograft study was conducted in female NOD SCID mice bearing DL-40 ALCL tumors. […]

H929 = assay: Anti-proliferative activity, 96 hours; settings: Homo sapiens, NCI-H929, 96 h
Maver-1 = assay: Anti-proliferative activity, 96 hours; settings: Homo sapiens, Maver1, 96 h
RPMI-8226 tumors = assay: RPMI-8226 multiple myeloma xenograft, CB17 SCID mice (Example 13); assay type: in vivo
Protocol: Compound 1 efficacy in two multiple myeloma cell lines (NC-H929) and (RPMI-8226) was evaluated at four different doses: 3 μg/kg, 10 μg/kg, 30 μg/kg, and 100 μg/kg. Compound 1 was administered QD (every day) orally (PO). […]
Statistical analysis was performed using two-way analysis of variance (ANOVA). Data are expressed as MTV±SEM.

SR = assay: Anti-proliferative activity, 96 hours; settings: Homo sapiens
[2] = Plasma PK and interconversion in monkeys; assay type: in vivo; settings: monkey, Compound 1 60 μg/kg or 100 μg/kg PO
Protocol: Compound 1 was administered to a rat at a concentration of 30 mg/kg PO and monkeys at a concentration of either 60 μg/kg or 100 μg/kg PO. At the indicated timepoints shown in FIG. 25A and FIG. 25B, plasma samples were collected and the Cmax, half-life, and AUC0-inf were determined for both Compound 1 and a metabolite of Compound 1, Compound 14. The percent of Compound 14 was also determined (Table 13). PK values dose normalized to 1 mg/kg. FIG. 25A is a graph measuring the concentration of Compound 1 or Compound 14 over the course of 24 hours in monkeys administered 100 μg/kg or 60 μg/kg of Compound 1. FIG. 25B is a graph measuring the concentration of Compound 1 or Compound 14 over the course of 24 hours in a rat administered 30 mg/kg of Compound 1.

SMILES: O=C1CC[C@H](N2C(=O)c3cccc4c(Cc5ccc(CN6CCOCC6)cc5)ccc2c34)C(=O)N1 (single isomer, unassigned) [Compound 1]
- tumor volume (KI-JK ALCL tumors): decreased
- pIC50 (KMM-1): 10.23
- pIC50 (SU-DHL-2): 8.34
- IKZF1 degradation (IKZF1): not degraded
- tumor volume versus pomalidomide 3000 μg/kg ([1]; 10, 30 and 100 μg/kg): reduced tumor volume more than pomalidomide
- Statistical Significance Compared to Vehicle ([1]; Dose Level (mg/kg) 10, PO QD): <0.0001
- Statistical Significance Compared to Vehicle ([1]; Dose Level (mg/kg) 30, PO QD): <0.0001
- Statistical Significance Compared to Vehicle ([1]; Dose Level (mg/kg) 100, PO QD): <0.0001
- levels of IKZF1 and IKZF3 versus pre-dose (IKZF1 and IKZF3): smaller
- Statistical Significance Compared to Vehicle (DL-40 ALCL tumors; 3 μg/kg PO daily): 0.0111
- Statistical Significance Compared to Vehicle (DL-40 ALCL tumors; 10 μg/kg PO daily): 0.0006
- Statistical Significance Compared to Vehicle (DL-40 ALCL tumors; 30 μg/kg PO daily): 0.0004
- Statistical Significance Compared to Vehicle (DL-40 ALCL tumors; 100 μg/kg PO daily): 0.0004
- Statistical Significance Compared to Vehicle (DL-40 ALCL tumors; 300 μg/kg PO daily): 0.0004
- tumor volume (DL-40 ALCL tumors; 30, 100, and 300 μg/kg, 21 days): able to reduce tumor volume
- pIC50 (H929): 10.14
- pIC50 (Maver-1): 7.92
- Statistical Significance Compared to Vehicle (RPMI-8226 tumors; 30 μg/kg PO QD): 0.01
- Statistical Significance Compared to Vehicle (RPMI-8226 tumors; 100 μg/kg PO QD): 0.009
- pIC50 (SR): 7.79
- AUC(0-inf) ([2]; dose normalized to 1 mg/kg): 1.28 µg·h/mL
- Cmax ([2]; dose normalized to 1 mg/kg): 0.083 µg/mL
- half-life ([2]; read-out: T ½ (converted)): 9 h

Reference: patent US20230190760A1, “ADVANTAGEOUS THERAPIES FOR DISORDERS MEDIATED BY IKAROS OR AIOLOS” (C4 Therapeutics, Inc., priority 2020, published 2023)
